Measured values published in patent US8247351B2, “Insecticidal compositions having improved effect” (Bayer Cropscience AG, priority 2005, dated 2012).

Experiments:
Assay type in all cases: in vivo
Myzus persicae = Myzus persicae test, Example F (sprayed to runoff, ammonium salt plus penetrant)
Procedure: (§1) Solvent: 7 parts by weight dimethylformamide
(§2) Emulsifier: 2 parts by weight alkylaryl polyglycol ether
An appropriate preparation of active ingredient is prepared by mixing 1 part by weight of active ingredient with the stated amounts of solvent and emulsifier and diluting the concentrate with water to the desired concentration. For the application with ammonium salts or phosphonium salts and penetrant (rapeseed oil methyl ester 500 EW), they are each added in a concentration of 1000 ppm to the spray liquor.
After the desired time the destruction in % is ascertained. 100% means that all of the animals have been killed; 0% means that no animals have been killed.

Aphis gossypii [1] = test: Aphis gossypii test, Example E (sprayed to runoff, ammonium salt boosting)
Procedure: as §1, §2
An appropriate preparation of active ingredient is prepared by mixing 1 part by weight of active ingredient with the stated amounts of solvent and emulsifier and diluting the concentrate with emulsifier-containing water to the desired concentration. For the application with ammonium salts or phosphonium salts, these salts are added in a concentration of 1000 ppm to the spray liquor.
(§3) Cotton plants (Gossypium hirsutum) heavily infested by the cotton aphid (Aphis gossypii) are sprayed to runoff with the preparation of active ingredient at the desired concentration.
(§4) After the desired time the destruction in % is ascertained. 100% means that all of the aphids have been killed; 0% means than no aphids were killed.

Aphis gossypii [2] = test: Aphis gossypii test, Example G (sprayed to runoff, ammonium salt plus penetrant)
Procedure: as §1, §2
An appropriate preparation of active ingredient is prepared by mixing 1 part by weight of active ingredient with the stated amounts of solvent and emulsifier and diluting the concentrate with emulsifier-containing water to the desired concentration. For the application with ammonium salts or phosphonium salts and penetrants (rapeseed oil methyl esters 500 EW), they are each added in a concentration of 1000 ppm a.i. to the spray liquor.
as §3, §4

[3] = 0.8 ppm active ingredient, +AS (1000 ppm)
[4] = 0.8 ppm active ingredient, +RME (1000 ppm)
[5] = 0.8 ppm active ingredient, +RME +AS (each 1000 ppm)
[6] = 0.8 ppm active ingredient, no additive
[7] = 4 ppm active ingredient, +AS (1000 ppm)
[8] = 4 ppm active ingredient, +RME (1000 ppm)
[9] = 4 ppm active ingredient, +RME +AS (each 1000 ppm)
[10] = 4 ppm active ingredient, no additive
[11] = 20 ppm active ingredient, +AS (1000 ppm)
[12] = 20 ppm active ingredient, no additive
[13] = 20 ppm active ingredient, +RME (1000 ppm)
[14] = 20 ppm active ingredient, +RME +AS (each 1000 ppm)
[15] = 100 ppm active ingredient, +AS (1000 ppm)
[16] = 100 ppm active ingredient, +RME (1000 ppm)
[17] = 100 ppm active ingredient, +RME +AS (each 1000 ppm)
[18] = 100 ppm active ingredient, no additive

COC1CCC2(CC1)NC(=O)C(c1c(C)cc(C)c(C)c1C)=C2O (centres unmarked) [Example I-1-a-9]
Degree of destruction/% after 6 days (Myzus persicae; [3]): 5%
Degree of destruction/% after 6 days (Myzus persicae; [4]): 35%
Degree of destruction/% after 6 days (Myzus persicae; [5]): 75%
Degree of destruction/% after 6 days (Myzus persicae; [6]): 0%

CO[C@H]1CC[C@]2(CC1)NC(=O)C(c1cc(C)ccc1C)=C2O [Example I-1-a-13]
Degree of destruction/% after 6 days (Myzus persicae; [3]): 0%
Degree of destruction/% after 6 days (Myzus persicae; [4]): 0%
Degree of destruction/% after 6 days (Myzus persicae; [5]): 30%
Degree of destruction/% after 6 days (Myzus persicae; [6]): 0%
Degree of destruction/% after 6 days (Myzus persicae; [7]): 0%
Degree of destruction/% after 6 days (Myzus persicae; [8]): 65%
Degree of destruction/% after 6 days (Myzus persicae; [9]): 75%
Degree of destruction/% after 6 days (Myzus persicae; [10]): 0%

COCC1CCC2(CC1)NC(=O)C(c1c(C)cc(C)cc1C)=C2O (centres unmarked) [Example I-1-a-14]
Degree of destruction/% after 6 days (Aphis gossypii [1]; [3]): 40%
Degree of destruction/% after 6 days (Aphis gossypii [1]; [6]): 25%
Degree of destruction/% after 6 days (Aphis gossypii [1]; [7]): 90%
Degree of destruction/% after 6 days (Aphis gossypii [1]; [10]): 55%

COCC1CCC2(CC1)NC(=O)C(c1c(C)cc(Cl)cc1C)=C2O (centres unmarked) [Example I-1-a-15]
Degree of destruction/% after 6 days (Aphis gossypii [1]; [7]): 75%
Degree of destruction/% after 6 days (Aphis gossypii [1]; [10]): 40%
Degree of destruction/% after 6 days (Aphis gossypii [1]; [11]): 95%
Degree of destruction/% after 6 days (Aphis gossypii [1]; [12]): 80%
Degree of destruction/% after 6 days (Myzus persicae; [3]): 0%
Degree of destruction/% after 6 days (Myzus persicae; [4]): 50%
Degree of destruction/% after 6 days (Myzus persicae; [5]): 80%
Degree of destruction/% after 6 days (Myzus persicae; [6]): 15%

COCCC1CCC2(CC1)NC(=O)C(c1c(C)cc(C)cc1C)=C2O (centres unmarked) [Example I-1-a-17]
Degree of destruction/% after 6 days (Aphis gossypii [1]; [7]): 80%
Degree of destruction/% after 6 days (Aphis gossypii [1]; [10]): 50%
Degree of destruction/% after 6 days (Aphis gossypii [1]; [11]): 85%
Degree of destruction/% after 6 days (Aphis gossypii [1]; [12]): 70%

COCC1CCC2(CC1)NC(=O)C(c1cc(C)c(Cl)cc1C)=C2O (centres unmarked) [Example I-1-a-18]
Degree of destruction/% after 6 days (Myzus persicae; [7]): 0%
Degree of destruction/% after 6 days (Myzus persicae; [8]): 35%
Degree of destruction/% after 6 days (Myzus persicae; [9]): 55%
Degree of destruction/% after 6 days (Myzus persicae; [10]): 0%

CCOC(=O)OC1=C(c2c(C)cc(C)cc2C)C(=O)NC12CCC(COC)CC2 (centres unmarked) [Example I-1-c-2]
Degree of destruction/% after 6 days (Aphis gossypii [2]; [11]): 85%
Degree of destruction/% after 6 days (Aphis gossypii [2]; [13]): 90%
Degree of destruction/% after 6 days (Aphis gossypii [2]; [14]): 99%
Degree of destruction/% after 6 days (Aphis gossypii [2]; [12]): 85%

Cc1cc(C)c(C2=C(O)C3(CCCCC3)CC2=O)c(C)c1 [Example I-6-a-1]
Degree of destruction/% after 6 days (Aphis gossypii [2]; [15]): 40%
Degree of destruction/% after 6 days (Aphis gossypii [2]; [16]): 60%
Degree of destruction/% after 6 days (Aphis gossypii [2]; [17]): 80%
Degree of destruction/% after 6 days (Aphis gossypii [2]; [18]): 40%

COC1CCCC2(CC(O)=C(c3c(C)cc(C)cc3C)C2=O)C1 (centres unmarked) [Example I-6-a-2]
Degree of destruction/% after 6 days (Aphis gossypii [2]; [15]): 30%
Degree of destruction/% after 6 days (Aphis gossypii [2]; [16]): 15%
Degree of destruction/% after 6 days (Aphis gossypii [2]; [17]): 40%
Degree of destruction/% after 6 days (Aphis gossypii [2]; [18]): 0%

O=C1C(c2cc(-c3ccc(Cl)cc3)ccc2Cl)C(=O)N2CCCCN12 [Example I-8-a-1]
Degree of destruction/% after 6 days (Myzus persicae; [15]): 30%
Degree of destruction/% after 6 days (Myzus persicae; [16]): 30%
Degree of destruction/% after 6 days (Myzus persicae; [17]): 45%
Degree of destruction/% after 6 days (Myzus persicae; [18]): 15%
Degree of destruction/% after 6 days (Aphis gossypii [2]; [15]): 15%
Degree of destruction/% after 6 days (Aphis gossypii [2]; [16]): 15%
Degree of destruction/% after 6 days (Aphis gossypii [2]; [17]): 40%
Degree of destruction/% after 6 days (Aphis gossypii [2]; [18]): 0%

O=C1C(c2cc(-c3ccc(Cl)cc3)ccc2Cl)C(=O)N2CCOCCN12 [Example I-8-a-2]
Degree of destruction/% after 6 days (Myzus persicae; [15]): 15%
Degree of destruction/% after 6 days (Myzus persicae; [16]): 15%
Degree of destruction/% after 6 days (Myzus persicae; [17]): 55%
Degree of destruction/% after 6 days (Myzus persicae; [18]): 0%

Cc1ccc(-c2ccc(Cl)cc2)c(C)c1C1C(=O)N2CCOCCN2C1=O [Example I-8-a-3]
Degree of destruction/% after 6 days (Aphis gossypii [2]; [11]): 50%
Degree of destruction/% after 6 days (Aphis gossypii [2]; [13]): 50%
Degree of destruction/% after 6 days (Aphis gossypii [2]; [14]): 90%
Degree of destruction/% after 6 days (Aphis gossypii [2]; [12]): 15%

Cc1cc(C)c(C2C(=O)N3CCOCCN3C2=O)c(C)c1-c1ccc(Cl)cc1 [Example I-8-a-4]
Degree of destruction/% after 6 days (Aphis gossypii [2]; 90 ppm active ingredient, +AS (1000 ppm)): 35%
Degree of destruction/% after 6 days (Aphis gossypii [2]; 90 ppm active ingredient, +RME (1000 ppm)): 30%
Degree of destruction/% after 6 days (Aphis gossypii [2]; 90 ppm active ingredient, +RME +AS (each 1000 ppm)): 75%
Degree of destruction/% after 6 days (Aphis gossypii [2]; 90 ppm active ingredient, no additive): 30%

Cc1ccc(-c2ccc(Cl)cc2)cc1C1=C(O)C(C)(C)C(C)(C)NC1=O [Example I-9-a-1]
Degree of destruction/% after 6 days (Myzus persicae; [15]): 0%
Degree of destruction/% after 6 days (Myzus persicae; [16]): 5%
Degree of destruction/% after 6 days (Myzus persicae; [17]): 50%
Degree of destruction/% after 6 days (Myzus persicae; [18]): 15%
